Measured values reported in patent US9505779B2 (EWHA University—Industry Collaboration Foundation, priority 2010, dated 2016).
Entries after “also recorded” stand apart in the source; their conditions may differ.

Columns and labels:
[1] = test system: CD3/CD28-stimulated human T lymphocytes; experiment: In vitro T-cell activation assay (interleukin-2 secretion, ELISA); assay type: cell-based; conditions: human T-cells activated with CD3/CD28 antibodies, 0.1 and 1.0 nM compound, 16 to 20 hr; for in vitro immunosuppressive activity (interleukin-2 secreted from activated T-cells) as compared with the control group: control = activated cells without compound
Protocol: After removal of cell debris by routine centrifugation, the supernatant was subjected to ELISA (R&D Systems) to quantify the level of interleukin-2 secreted from activated T-cells. The level of interleukin-2 obtained from T cells activated with CD3/CD28 without further treatment with the above compounds was used as a control (FIG. 7).
(§1) For statistical comparisons of group differences, especially for both the T cell activation and neurite outgrowth assays, quantitative data were analyzed by one-way analysis of variance (ANOVA) followed by Fisher's t-test according to the statistical program SigmaStat® (Jandel Scientific; version 3.1).

[2] = test system: human neuroblastoma SH-SY5Y cells; experiment: In vitro neurite outgrowth assay using human neuroblastoma cells; assay type: cell-based; conditions: for neurite processes compared with cells treated with NGF alone (micrographs, FIG. 8) / neurite outgrowth activity: SH-SY5Y; for neurite processes compared with cells treated with NGF alone (micrographs, FIG. 8): NGF plus 1 nM compound, after 96 h of cultivation; for neurite outgrowth activity: NGF
Protocol: The relative nerve regeneration activities of the mutasynthetic analogues, 36-methyl-FK506 and 36-fluoro-FK520, compared with authentic K506 and FK520, were determined using human neuroblastoma cells. […] The cells (n=90) were randomly photographed after 96 hr of cultivation, then the number of cells with outgrowth was counted. The neurite lengths were measured on photographic prints. Duplicate wells were run in all experiments, and the entire experiment was replicated three times. Neurite length estimated from samples treated with NGF alone was used as a control (FIGS. 7 and 8).
as §1

Compound | in vitro immunosuppressive activity (interleukin-2 secreted from activated T-cells) as compared with the control group [1] | neurite processes compared with cells treated with NGF alone (micrographs, FIG. 8) [2] | neurite outgrowth activity ([2]; 1 nM compound) | in vitro immunosuppressive activity (interleukin-2 secretion) against FK506 and FK520 [1] | greater effect on neurite outgrowth compared with FK506 ([2]; SH-SY5Y treated with nerve growth factor (10 ng/ml), 1 nM compound, 96 hr)
CO[C@H]1C[C@@H](C)C/C(C)=C/[C@@H](CCF)C(=O)C[C@H](O)[C@@H](C)[C@@H](/C(C)=C/[C@@H]2CC[C@@H](O)[C@H](OC)C2)OC(=O)[C@@H]2CCCCN2C(=O)C(=O)[C@]2(O)O[C@H]1[C@@H](OC)C[C@H]2C [36-fluoro-FK520] | have the immunosuppressive activity | longer | strong neurite outgrowth activity | – | –
C=C(C)C[C@@H]1/C=C(\C)C[C@H](C)C[C@H](OC)[C@H]2O[C@@](O)(C(=O)C(=O)N3CCCC[C@H]3C(=O)O[C@H](/C(C)=C/[C@@H]3CC[C@@H](O)[C@H](OC)C3)[C@H](C)[C@@H](O)CC1=O)[C@H](C)C[C@@H]2OC [36-methyl-FK506] | significant immunosuppressive activity; also recorded: have the immunosuppressive activity | longer | strong neurite outgrowth activity | not improved | ~20%
C=CC[C@@H]1/C=C(\C)C[C@H](C)C[C@H](OC)[C@H]2O[C@@](O)(C(=O)C(=O)N3CCCC[C@H]3C(=O)O[C@H](/C(C)=C/[C@@H]3CC[C@@H](O)[C@H](OC)C3)[C@H](C)[C@@H](O)CC1=O)[C@H](C)C[C@@H]2OC [FK506, tacrolimus, reference compound] | – | longer | – | – | –
CC[C@@H]1/C=C(\C)C[C@H](C)C[C@H](OC)[C@H]2O[C@@](O)(C(=O)C(=O)N3CCCC[C@H]3C(=O)O[C@H](/C(C)=C/[C@@H]3CC[C@@H](O)[C@H](OC)C3)[C@H](C)[C@@H](O)CC1=O)[C@H](C)C[C@@H]2OC [FK520, ascomycin, reference compound] | – | exception | – | – | –
